From PubChem BioAssay AID485280 (The Scripps Research Institute Molecular Screening Center, 2010) come the findings set out here.

This assay deals with Huh-7.5 viability, XTT absorbance. Nature of the assay: Huh-7.5 cell viability reduction – absorbance, cytotoxicity control for HCV core dimerization inhibitor project, late-stage follow-up (AID 485280).

Calls of active or inactive are those of the source.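 How the source made its calls: active means CC50 of 24 µM or less, the dose killing half of Huh-7.5 liver cells, showing toxicity to them; inactive means no cytotoxicity, CC50 exceeds 24 µM.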

Broadly, the CC50 is the concentration giving 50% cytotoxicity.

Turning to `Cc1ccccc1N1C(=O)/C(=C/c2ccco2)C(=O)NC1=S`, the CC50 is 143 µM (inactive).
With `CCN(CC(=O)Nc1c(F)cccc1F)C(=O)/C=C/c1ccc2ccccc2n1`, the CC50 is 148 µM (inactive).
Consider `O=C(/C=C/c1ccc(Br)o1)OCc1nc2ccsc2c(=O)[nH]1`, for which the CC50 is 163 µM (inactive).
The result for `COCCN(C(=O)COC(=O)c1cc2c(s1)CCC2)c1c(N)n(Cc2ccccc2)c(=O)[nH]c1=O` reads 141 µM (inactive); that for `Cc1ccc(Cc2c(C)nc3nc(SCC(=O)NCCCN4CCCCCC4)nn3c2C)cc1`, 27.4 µM (inactive); that for `COc1ccc(NC(=O)CN(C)C(=O)c2cc3c(s2)CCC3)cc1`, 123 µM (inactive).
Then `CCCCCC#CCC#CCC#CCC#CCCCC(=O)O`, with 179 µM (inactive).
